target: T1, Streptokinase A (Streptococcus pyogenes serotype M1, UniProt P10520); assay: viability-normalized secreted streptokinase activity reduction – plasminogen activation absorbance, OD405, dose response (AID 1914)
T1 sequence (P10520 whole entry): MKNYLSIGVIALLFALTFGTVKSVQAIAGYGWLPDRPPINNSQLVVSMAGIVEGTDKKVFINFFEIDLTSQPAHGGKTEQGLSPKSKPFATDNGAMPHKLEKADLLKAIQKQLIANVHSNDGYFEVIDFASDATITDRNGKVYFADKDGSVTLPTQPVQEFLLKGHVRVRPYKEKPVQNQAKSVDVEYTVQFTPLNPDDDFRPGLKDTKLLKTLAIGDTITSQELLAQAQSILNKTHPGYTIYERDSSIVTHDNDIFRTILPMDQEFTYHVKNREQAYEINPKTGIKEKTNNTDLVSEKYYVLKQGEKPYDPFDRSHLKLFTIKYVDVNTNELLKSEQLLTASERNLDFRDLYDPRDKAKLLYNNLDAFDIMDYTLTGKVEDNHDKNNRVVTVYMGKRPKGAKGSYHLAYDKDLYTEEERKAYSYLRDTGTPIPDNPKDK

Q: With CCOc1cc(CN=Nc2cccc(C(=O)O)c2)ccc1OC(=O)c1ccccc1 [3-[(N''E)-N''-(4-benzoyloxy-3-ethoxy-benzylidene)hydrazino]benzoic acid] as the compound, how does the EC50 read?
A: > 150 µM

Q: Which EC50 does the source give for O=C(O)c1ccc(N=NCc2ccc(OC(=O)c3cccc(Cl)c3)cc2)cc1 [4-[2-[[4-[(3-chlorophenyl)-oxomethoxy]phenyl]methylidene]hydrazinyl]benzoic acid] here?
A: > 150 µM

Q: For COc1ccccc1CN=Nc1cc(C)nc(-n2nc(C)cc2C)n1 [SMR000212744], which EC50 is on record?
A: > 150 µM

Q: How did the EC50 turn out when CSc1cccc(-c2nnc(NC(=O)c3cccc(-n4c(O)ccc4O)c3)o2)c1 [SMR000811880] was run?
A: > 150 µM

Q: For CCc1ccc2nc(N3C(=O)C(=O)C(C(=O)c4ccco4)C3c3cccs3)sc2c1 (configuration not stated) [1-(6-ethyl-1,3-benzothiazol-2-yl)-3-(furan-2-ylcarbonyl)-4-oxidanyl-2-thiophen-2-yl-2H-pyrrol-5-one], which EC50 is on record?
A: > 150 µM

Q: Cc1ccc(C2C(C(=O)c3cc4ccccc4o3)C(=O)C(=O)N2c2cc(C)on2)cc1 (configuration not stated) [MLS001147776] was tested. Which EC50 did it give?
A: 6.3 µM

Q: With O=C(CCCCCNC(=O)c1ccccc1)NNC1=c2cc(Br)cc(Br)c2=NC1=O [N-[6-[2-[5,7-bis(bromanyl)-2-oxidanylidene-indol-3-yl]hydrazinyl]-6-oxidanylidene-hexyl]benzamide] as the compound, how does the EC50 read?
A: > 150 µM

Q: Which EC50 does the source give for CCCCN1C(=O)/C(=N\NC(=O)c2ccccc2NS(=O)(=O)c2cccs2)c2ccccc21 [N-[(Z)-(1-butyl-2-oxoindol-3-ylidene)amino]-2-(thiophen-2-ylsulfonylamino)benzamide] here?
A: > 150 µM

Q: How did the EC50 turn out when N#CC(C(=O)CN1CCN(c2ccccc2F)CC1)c1nc(-c2ccccc2)cs1 (configuration not stated) [(2Z)-4-[4-(2-fluorophenyl)piperazin-1-yl]-3-oxidanylidene-2-(4-phenyl-3H-1,3-thiazol-2-ylidene)butanenitrile] was run?
A: > 150 µM

Q: Which EC50 does the source give for Oc1nc(N=NCc2cccs2)sc1Cc1ccc(Cl)c(Cl)c1 [5-[(3,4-dichlorophenyl)methyl]-2-[2-(thiophen-2-ylmethylidene)hydrazinyl]-4-thiazolone] here?
A: > 150 µM

Q: How did the EC50 turn out when CC(C)c1ccc2c(c1)=C(NNC(=O)c1cccc(S(=O)(=O)N3CCCCC3)c1)C(=O)N=2 [SMR000243307] was run?
A: > 150 µM

Q: O=NC(c1ccc(Cl)cc1Cl)c1ncc(C(F)(F)F)cc1Cl (configuration not stated) [MLS000540015] was tested. Which EC50 did it give?
A: 35.2 µM

Q: With Cc1ccccc1CN=Nc1nc2ccccc2[nH]1 [SMR000305031] as the compound, how does the EC50 read?
A: > 150 µM

Q: With C=c1[nH][nH]c(=O)c1=Cc1cn(-c2ccccc2)nc1-c1ccc(Cl)cc1 [SMR000193592] as the compound, how does the EC50 read?
A: 4.83 µM

Q: With CC(N=Nc1ccc(C(=O)O)cc1)c1ccc2c(c1)Nc1ccccc1S2 (configuration not stated) [MLS000759774] as the compound, how does the EC50 read?
A: > 150 µM

Q: With COc1cccc(-n2c(O)c3[nH][nH]c(C(=O)CN4C(=O)c5ccccc5C4=O)c-3c2=O)c1 as the compound, how does the EC50 read?
A: > 150 µM

Q: How did the EC50 turn out when CN(C)CCN=CC(C(=O)Nc1ccc(Cl)cc1Cl)C(=O)Nc1ccc(Cl)cc1Cl [N~1~,N~3~-bis(2,4-dichlorophenyl)-2-({[2-(dimethylamino)ethyl]amino}methylene)malonamide] was run?
A: > 150 µM

Q: Which EC50 does the source give for CN1C(=O)C(=NNC(=S)Nc2ccccc2F)c2cc(S(=O)(=O)N3CCOCC3)ccc21 [SMR000314843] here?
A: > 150 µM

Q: How did the EC50 turn out when Cc1[nH]c2ccccc2c1/C=C1\N=C(c2ccc(F)cc2)OC1=O [2-(4-fluorophenyl)-4-[(2-methyl-1H-indol-3-yl)methylene]-1,3-oxazol-5(4H)-one] was run?
A: 16.6 µM

Q: CCCCCCC(=O)NNC=C1C(=O)NC(=S)N(CCCC)C1=O [MLS000763126] was tested. Which EC50 did it give?
A: > 150 µM

Q: How did the EC50 turn out when COc1ccc(OC)c(C2CC(C34CC5CC(CC(C5)C3)C4)=NC(=S)N2)c1 (configuration not stated) [6-Adamantan-1-yl-4-(2,5-dimethoxy-phenyl)-3,4-dihydro-1H-pyrimidine-2-thione] was run?
A: 14.7 µM

Q: How did the EC50 turn out when CCCCCCC(=O)NNC=C1C(=O)NC(=S)N(C(C)CC)C1=O (configuration not stated) [SMR000439319] was run?
A: > 150 µM

Q: With Clc1ccc(-c2ccc(CN=Nc3cc(N4CCOCC4)nc(N4CCOCC4)n3)o2)cc1 [MLS000527145] as the compound, how does the EC50 read?
A: > 150 µM

Q: With Cc1ccc(O)c(C2CC(c3ccc(Cl)cc3)N=N2)c1 (configuration not stated) [SMR000414826] as the compound, how does the EC50 read?
A: > 150 µM

Q: For CCCCCCCCOC(=O)C1C(C)=Nc2nnnn2C1c1cccs1 (configuration not stated) [MLS000519969], which EC50 is on record?
A: 50 µM

Q: For O=C(O)c1ccccc1N=NCc1cc(Br)cc(Br)c1O [2-[2-[(E)-(3,5-dibromo-6-oxocyclohexa-2,4-dien-1-ylidene)methyl]hydrazinyl]benzoic acid], which EC50 is on record?
A: 32.4 µM

Q: Which EC50 does the source give for CC(=NNC(=N)Sc1cc(O)n(-c2ccc(Cl)c(Cl)c2)c1O)c1cccs1 [1-(3,4-dichlorophenyl)-2,5-dioxo-3-pyrrolidinyl 2-[1-(2-thienyl)ethylidene]hydrazinecarbimidothioate] here?
A: 7.44 µM

Q: CC(N=Nc1ccc(Cl)c(Cl)c1)c1ccc(-n2ccnc2)cc1 (configuration not stated) was tested. Which EC50 did it give?
A: 17.2 µM

Q: With O=C1C([N+](=O)[O-])=CC(Cl)=CC1/C=N/NC(=O)C(O)(c1ccccc1)c1ccccc1 (configuration not stated) [N''''-[(E)-(3-chloro-5-nitro-6-oxocyclohexa-2,4-dien-1-ylidene)methyl]-2-hydroxy-2,2-diphenylacetohydrazide] as the compound, how does the EC50 read?
A: > 150 µM

Q: With N=C(N)C1=CC(=O)/C(=C/C=c2ccc(=C(N)N)cc2)C=C1 [(4E)-4-[2-[4-[bis(azanyl)methylidene]cyclohexa-2,5-dien-1-ylidene]ethylidene]-3-oxidanylidene-cyclohexa-1,5-diene-1-carboximidamide;2-oxidanylethanesulfonic acid] as the compound, how does the EC50 read?
A: 20 µM

Q: Which EC50 does the source give for CCOc1ccc2[nH]c(=O)c(CN(CC3COCCO3)C(=O)C3CC3)cc2c1 (configuration not stated) [MLS000031787] here?
A: > 150 µM

Q: For CCN1C(=O)C(C=NN=Cc2ccccc2)c2ccc(C3=NNC(=O)CC3)cc21 (configuration not stated) [benzaldehyde {[1-ethyl-2-oxo-6-(6-oxo-1,4,5,6-tetrahydro-3-pyridazinyl)-1,2-dihydro-3H-indol-3-ylidene]methyl}hydrazone], which EC50 is on record?
A: > 150 µM

Q: Cc1nn(-c2ccccc2)c(Cl)c1C1C2=C(CCCC2=O)OC(=N)C1C#N (configuration not stated) [2-azanyl-4-(5-chloranyl-3-methyl-1-phenyl-pyrazol-4-yl)-5-oxidanylidene-4,6,7,8-tetrahydrochromene-3-carbonitrile] was tested. Which EC50 did it give?
A: > 150 µM

Q: With COc1cccc(CN=Nc2cc(C)nc(-c3ccccc3O)n2)c1O [SMR000274167] as the compound, how does the EC50 read?
A: > 150 µM

Q: With C=CCOC(=O)C1=C(C)N=C(SCC)C(C#N)C1c1ccc(Cl)cc1 (configuration not stated) [4-(4-Chloro-phenyl)-5-cyano-6-ethylsulfanyl-2-methyl-1,4-dihydro-pyridine-3-carboxylic acid allyl ester] as the compound, how does the EC50 read?
A: 8.34 µM

Q: How did the EC50 turn out when Cc1ccc(C(=O)CC(=O)C(=O)NC23CC4CC(CC(C4)C2)C3)cc1 [(Z)-N-(1-adamantyl)-4-hydroxy-4-(4-methylphenyl)-2-oxobut-3-enamide] was run?
A: > 150 µM

Q: How did the EC50 turn out when COc1cc(CN=Nc2ncnc3sc4c(c23)CCC4)ccc1O [SMR000242188] was run?
A: 5.06 µM

Q: Which EC50 does the source give for COC(=O)C1C(C)=NC2=C(C(=O)c3ccccc32)C1c1ccc(-c2ccc(C(=O)O)cc2)o1 (configuration not stated) [4-{5-[3-(methoxycarbonyl)-2-methyl-5-oxo-4,5-dihydro-1H-indeno[1,2-b]pyridin-4-yl]-2-furyl}benzoic acid] here?
A: > 150 µM

Q: For CCn1cc(C(=O)O)c(=O)c2cc(F)c(N=NCc3ccccc3[N+](=O)[O-])cc21 [SMR000171611], which EC50 is on record?
A: > 150 µM

Q: With S=C1N=C(C23CC4CC(CC(C4)C2)C3)CC(c2ccc3c(c2)OCO3)N1 (configuration not stated) as the compound, how does the EC50 read?
A: 22.5 µM

Q: With Cc1nc(N=NCc2ccc3c(c2)OCO3)sc1C [(4,5-dimethylthiazol-2-yl)-(piperonylideneamino)amine] as the compound, how does the EC50 read?
A: > 150 µM

Q: Which EC50 does the source give for O=C1Nc2ccccc2C1=NNc1ccc(S(=O)(=O)Nc2cccc(Cl)c2)cc1[N+](=O)[O-] [N-(3-chlorophenyl)-3-nitro-4-[2-(2-oxoindol-3-yl)hydrazinyl]benzenesulfonamide] here?
A: 27.4 µM

Q: For CC(=NNC(=N)Sc1cc(O)n(-c2ccc(Br)cc2)c1O)c1cccs1 [[1-(4-bromophenyl)-2,5-bis(oxidanylidene)pyrrolidin-3-yl] N''-(1-thiophen-2-ylethylideneamino)carbamimidothioate], which EC50 is on record?
A: 9.08 µM

Q: N#CC1C(=N)OC2=C(CCc3ccccc32)C1c1ccccc1Cl (configuration not stated) [MLS000586146] was tested. Which EC50 did it give?
A: 11.9 µM

Q: With CN(C)c1ccc(CN=Nc2nc3ccccc3o2)cc1 as the compound, how does the EC50 read?
A: > 150 µM

Q: For Oc1ccc(CN=Nc2ccc3ccccc3c2)c(O)c1 [(4E)-3-hydroxy-4-[(2-naphthalenylhydrazo)methylidene]-1-cyclohexa-2,5-dienone], which EC50 is on record?
A: > 150 µM

Q: For C=CCN1C(=O)NC(=O)C(=C(C)Nc2ccc(N(CC)CC)cc2)C1=O [SMR000043704], which EC50 is on record?
A: > 150 µM

Q: For COc1ccc(CN=Nc2cc(C)nc(-n3nc(C)cc3C)n2)c(OC)c1 [MLS000589396], which EC50 is on record?
A: > 150 µM

Q: Which EC50 does the source give for COc1ccc(C2C(C(=O)c3ccccc3)C(C)=Nc3nc4ccccc4n32)c(OC)c1 (configuration not stated) [MLS000586747] here?
A: > 150 µM

Q: CC(C)c1oc(NC(=O)Nc2ccc(Cl)c(Cl)c2)nc1O [MLS000053797] was tested. Which EC50 did it give?
A: > 150 µM

Q: How did the EC50 turn out when O=C1C(=NNC(=S)Nc2ccccc2F)c2ccccc2N1Cc1cccc(Cl)c1 [1-[(Z)-[1-[(3-chlorophenyl)methyl]-2-oxoindol-3-ylidene]amino]-3-(2-fluorophenyl)thiourea] was run?
A: > 150 µM

Q: Which EC50 does the source give for O=C1C([N+](=O)[O-])=CC(Cl)=CC1CN=Nc1nc2ccccc2s1 (configuration not stated) here?
A: > 150 µM

From BindingDB's records for doi:10.7270/Q2736PBV (Broad Institute, 2009)
